Data on one compound can be found in patent publication US8338420B1, “Treatment of Parkinson's disease and enhancement of dopamine signal using PDE 10 inhibitor” (Mitsubishi Tanabe Pharma Corporation, priority 2002, dated 2012).

One assay addresses T1, PDE5 (Canis lupus familiaris, UniProt O77746).
T1 construct: These were used as a PDE5 enzyme solution for PDE assay; tissue Oriental Yeast (animals); host or cells: canine lung, soluble fraction, DEAE Sepharose fractions
Description: PDE assay, PDE5 enzyme solution from canine lung. As to conditions: substrate about 12 nM [3H]-cGMP and 1 μM cGMP. It counts as biochemical. Here is the method: In the same manner as in (1-4) above, the supernatant obtained from the homogenate of canine lung tissue was applied to chromatography under FLPC system, to collect eluted fractions of 2 ml each.
Subsequently, the eluted fractions were used as an enzyme solution for PDE assay, and cGMP-hydrolyzing activity was measured for respective fractions, in the presence or absence of E4021, the PDE5 specific inhibitor.
Further, for examining contamination of PDE1, which is adjacently eluted, cGMP-hydrolyzing PDE activity of the respective fractions were measured in the same assay buffer containing EGTA (final concentration of 1 mM) [or calcium chloride (final concentration of 2 mM) and calmodulin (40 units/ml)].
These fractions were collected and glycerol was added thereto to become 50%, and the mixture was stored at −20° C. These were used as a PDE5 enzyme solution for PDE assay.

For a further assay, the target named is T2, PDE11 (PDE11A) (Homo sapiens, UniProt Q9HCR9).
T2 construct: His tag (hexahistidine, pcDNA4/HisMax) (N); made in house
Nature of the assay: PDE assay, recombinant human PDE11A. It counts as biochemical. The following applies: substrate about 12 nM [3H]-cGMP and 1 μM cGMP. An excerpt:
Based on the information of cDNA sequence of human PDE7A (Genbank/EMBL Accession No. NM002603), a cDNA encoding human PDE7A was cloned by PCR method, according to a method described in Sasaki et al. (Sasaki et al., Biochem. Biophys. Res. Commun., vol. 271, pp. 575-583, 2000). Further, based on the information of cDNA sequence of human PDE8A (Genbank/EMBL Accession No. AF388183), a cDNA encoding human PDE8A was cloned by PCR method, according to a method described in Gamanuma et al. (Gamanuma et al., Cell Signal, 2003, vol. 15, pp. 565-574). Further, a cDNA encoding human PDE11A was obtained, according to a method reported in Yuasa et al. (Yuasa et al., J. Biol. Chem., vol. 275, pp. 31469-31479, 2000). Using these cDNAs, recombinant proteins of human PDE7A, human PDE8A, and human PDE11A were prepared as follows.
DNA fragments comprising a cDNA encoding human PDE7A, human PDE8A or human PDE11A were linked to pcDNA4/HisMax (available from Invitrogen), to give a vector plasmid for expression of human proteins, with a histidine tag peptide (hexahistidine), added to the N-terminus. COS-7 cells were transfected with these vector plasmids, and the cells were cultured in Dulbecco's modified Eagle medium containing 10% bovine fetal serum for about 24 hours. […]

T2 sequence (Q9HCR9 whole entry): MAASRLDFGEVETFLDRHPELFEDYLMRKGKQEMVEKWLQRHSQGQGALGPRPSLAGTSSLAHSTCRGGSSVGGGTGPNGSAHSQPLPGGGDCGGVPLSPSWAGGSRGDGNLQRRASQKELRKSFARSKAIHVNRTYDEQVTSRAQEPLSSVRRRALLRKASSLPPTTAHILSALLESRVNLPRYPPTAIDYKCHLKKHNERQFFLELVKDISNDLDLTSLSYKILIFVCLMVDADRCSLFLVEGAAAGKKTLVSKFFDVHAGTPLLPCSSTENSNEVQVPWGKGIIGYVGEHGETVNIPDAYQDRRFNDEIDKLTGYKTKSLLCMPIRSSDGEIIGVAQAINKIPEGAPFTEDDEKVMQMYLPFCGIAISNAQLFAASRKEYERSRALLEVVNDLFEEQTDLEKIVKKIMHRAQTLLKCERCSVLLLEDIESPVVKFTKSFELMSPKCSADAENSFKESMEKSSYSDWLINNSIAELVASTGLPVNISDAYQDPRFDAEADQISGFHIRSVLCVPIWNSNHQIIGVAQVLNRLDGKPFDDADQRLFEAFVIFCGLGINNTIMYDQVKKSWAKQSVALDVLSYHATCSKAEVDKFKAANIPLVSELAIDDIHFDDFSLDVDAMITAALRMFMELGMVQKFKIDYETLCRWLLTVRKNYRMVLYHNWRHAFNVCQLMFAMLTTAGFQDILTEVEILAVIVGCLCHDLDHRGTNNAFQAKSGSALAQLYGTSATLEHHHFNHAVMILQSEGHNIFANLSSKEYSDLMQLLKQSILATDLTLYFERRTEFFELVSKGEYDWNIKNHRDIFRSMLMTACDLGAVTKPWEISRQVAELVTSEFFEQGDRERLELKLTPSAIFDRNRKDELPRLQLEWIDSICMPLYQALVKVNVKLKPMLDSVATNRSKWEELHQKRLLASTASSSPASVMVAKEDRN

In the case of `COc1ccc(-c2cc(N3CCCC3)nc(/C=C/c3nc(-n4ccnc4)c4ccccc4n3)n2)cc1OC` [Compound A, 2-{(E)-2-[4-(1-imidazolyl)-quinazolin-2-yl]}ethenyl-4-(3,4-dimethoxy)phenyl-6-(pyrrolidin-1-yl)pyrimidine], the IC50 against PDE5 and at PDE11 (PDE11A) was above 1000 nM each time.
